Assay results reported in patent US20100297256A1, “METHODS AND COMPOSITIONS FOR INHIBITING INTEGRINS USING TELLURIUM-CONTAINING COMPOUNDS” (priority 2007, published 2010).

What was measured:
[1] = test system: C57B1/6N female mice; test: Mouse plug in vivo migration and angiogenesis assay; conditions: 20 μg/mouse s.c. daily, 10 days, ECGS 500 μg/ml in Matrigel
Method: Matrigel was mixed with ECGS (500 μg/ml) and injected subcutaneously into C57B1/6N female mice on the ventral surface of the animal. During 10 days, every day, AS101 or SAS (20 μg/mouse in Matrigel) were injected subcutaneously. After 10 days, the plugs were removed with some surrounding tissue, fixed in 10% formalin, and paraffin-embedded. Sections were deparaffinized, and stained with hematoxylin and eosin dyes. In the most positive regions, stained cells were counted by a blinded observer. In each treatment group there were 5-6 mice, and the experiment was performed twice. Images from the sections were captured using a 10× objective of an Olympus microscope.

[2] = test system: SVEC4-10 endothelial cells; test: Tube formation assay, SVEC4-10; type: cell-based, murine; conditions: SVEC4-10 on Matrigel, 3 hours
Method: Plates (48 wells) were coated with 150 μl of Matrigel and incubated at 37° C. for 1 hour to promote gelling. Svec4-10 or HUVEC cells (40,000 cells) in 0.5 ml of serum-free DMEM with varying concentration of AS101 or SAS were added to each well. For positive control, ECGS was added at a concentration of 50 μg/ml. All samples were performed in sextuplicate. After 3 hours incubation, the plates were fixed with methanol and stained with crystal violet. Randomly chosen fields were photographed and density of tube formation was analyzed by imageJ.

[3] = test system: SVEC4-10 cells; test: Cell attachment assay, SVEC4-10; type: cell-based, murine
Method: (§1) The cell attachment assays were performed in sextuplicate in 96-well plates. The 1 μg of C16 or AG73 peptide in 60 μl double-distilled water was added to each well, and this volume was allowed to air dry overnight in a biosafety hood at room temperature (or fibronectin 20 ng/80 μl for 1 hour at 37° C.). Thereafter, nonspecific binding sites of the tissue culture plastic were blocked by adding 200 μl of 1% bovine serum albumin (BSA) in PBS for 1 hour at 37° C. LAN-1, B16F10 and SVEC4-10 cells were harvested by agitation, washed three times in serum-free DMEM and resuspended in 1% BSA-DMEM. After 20 minutes incubation in 1% BSA in a tube, cells were washed and resuspended in 0.1% BSA. The cells were counted using a hemocytometer and brought to a final cell count of 1×10^6/ml in the 0.1% BSA medium. Cells were divided into tubes and each tube was treated with one of the following in DMEM: ECGS (endothelial cell growth supplement) (50 μg/ml), AS101 (1-5 μg/ml), SAS (1-5 μg/ml), ECGS (50 μg/ml)+SAS (1-5 μg/ml), ECGS (50 μg/ml)+AS101 (1-5 μg/ml), 10% serum, 10% serum+AS101 (1-5 μg/ml) or 10% serum+SAS (1-5 μg/ml).
(§2) Next, 150 μl of the treated cell suspension was added to each well (20,000 cells/well), which had been coated with peptides, and incubated for 50 minutes at 37° C. After 50 minutes, the unattached cells were removed by aspiration and the remaining attached cells were fixed and stained by crystal violet. 100 μl aliquot of 10% SDS was thereafter added to each well for cell lysis and dye release and absorption was read with a TECAN spectrophotometer at 570 nm.
(§3) Attached cells were washed with PBS without Ca^+2/Mg^+2. 100 μl of 0.2% crystal violet in 20% methanol was thereafter added and the cells were incubated for 10 minutes at room temperature. At the end of incubation time, cells were washed twice with double-distilled water and 100 μl of 10% SDS was added. Dye bound to the cell is released by SDS and the absorption by the dye is measured by colorimetry at 570 nm. The amount of stained cells is then considered to be proportional to the measured absorption by the dye

[4] = test system: LAN-1 cells; test: Cell attachment assay, LAN-1; type: cell-based, human; conditions: for cell attachment to fibronectin: LAN-1; for cell attachment to C16 and AG73 peptides: LAN-1, data not shown, compared with SVEC4-10
Method: as §1, §2, §3

[5] = test system: RAW cells; test: Cell attachment assay, RAW; type: cell-based
[6] = molecular target: T1, αVβ3 integrin (Homo sapiens, UniProt P05106+P06756); test: ELISA-integrin; type: binding; conditions: 0.5-10 μg/ml
T1 construct: purchased Chemicon
Method: Plates coated with C16 or fibronectin were blocked with 10% BSA for 1 hour and washed with PBS. 20 ng/well of integrin with or without AS101/SAS was applied on fibronectin or 2 ng C16 coated well and incubated for 1.5 hours at 37° C. The wells were thereafter washed with PBS-T and mouse anti-integrin was added thereto for 1 hour at 37° C. Cells were then washed again and anti-mouse-horseradish peroxidase was added for another 1 hour at 37° C. Finally, cells were washed, TBM-substrate was added for color development, and absorption was read at 595 nm. Data presented as ±SE, bar *=p<0.005, evaluated by T-test.

[7] = test system: FAK; test: Western blot analysis of FAK phosphorylation; type: cell-based, murine
Method: Cell lysates (20 μg) were diluted with an equal volume of 2×SDS (sodium dodecyl sulfate) sample buffer and separated according to size by SDS-PAGE (SDS-polyacrylamide gel electrophoresis). Proteins were transferred to a polyvinylidene difluoride membrane via electroelution by a transfer system (Bio-Rad), blocked for 1 hour by blocking buffer (5% skim milk in PBS with 0.05% Tween 20) and incubated for 2 hours in room temperature or for overnight in 4° C. with primary antibodies diluted in blocking buffer. Membranes were washed several times in PBS with 0.05 Tween (PBS-T) and incubated for 1 hour with horseradish peroxidase-conjugated anti-mouse or anti-rabbit antibodies (diluted 1:10,000). Proteins were detected by ECL Western Blotting Detection Reagents according to the instructions of the manufacturer (PIERCE).

[8] = test system: integrin α subunits; test: Multiple anti-integrin antibody binding assay, α subunits; type: cell-based; conditions: SVEC cells
Method: The specificity of tellurium-containing compounds to integrins was tested by examining the effect of AS101 and SAS on the attachment of SVEC cells to specific anti-integrin antibodies. Commercially available kits (R&D Biosystems) with anti-integrin coated wells were used, and attachment was determined according to the manufacturer's instructions.

[9] = B16F10, 5 to 10 minutes incubation
[10] = LAN-1, 5 to 10 minutes incubation
[11] = SVEC4-10, 5 to 10 minutes incubation

T1 sequence (P06756 31-889 limits assumed): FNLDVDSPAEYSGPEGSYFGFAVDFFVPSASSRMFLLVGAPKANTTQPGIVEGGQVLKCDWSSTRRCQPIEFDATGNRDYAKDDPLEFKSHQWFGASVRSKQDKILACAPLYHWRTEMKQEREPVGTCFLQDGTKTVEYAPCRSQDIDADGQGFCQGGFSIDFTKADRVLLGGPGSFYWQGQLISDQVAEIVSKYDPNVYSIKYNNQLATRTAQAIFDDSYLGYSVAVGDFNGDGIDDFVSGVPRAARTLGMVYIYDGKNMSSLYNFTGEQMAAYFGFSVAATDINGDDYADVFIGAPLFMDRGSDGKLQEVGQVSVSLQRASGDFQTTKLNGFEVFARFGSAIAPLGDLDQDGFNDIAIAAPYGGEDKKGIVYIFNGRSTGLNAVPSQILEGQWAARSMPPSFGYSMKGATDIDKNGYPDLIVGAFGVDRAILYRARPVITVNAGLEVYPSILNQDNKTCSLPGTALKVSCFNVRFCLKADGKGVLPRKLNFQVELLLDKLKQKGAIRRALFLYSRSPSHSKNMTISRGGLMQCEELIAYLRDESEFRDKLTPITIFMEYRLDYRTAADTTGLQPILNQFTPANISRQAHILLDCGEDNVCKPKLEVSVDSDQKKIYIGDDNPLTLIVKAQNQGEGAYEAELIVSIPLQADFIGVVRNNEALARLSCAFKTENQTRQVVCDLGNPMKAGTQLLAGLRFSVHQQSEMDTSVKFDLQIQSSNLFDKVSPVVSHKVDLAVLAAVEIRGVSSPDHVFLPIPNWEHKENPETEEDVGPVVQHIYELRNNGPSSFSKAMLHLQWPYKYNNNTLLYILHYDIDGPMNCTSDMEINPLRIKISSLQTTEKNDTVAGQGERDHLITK
T1 sequence (P06756 891-1048 limits assumed): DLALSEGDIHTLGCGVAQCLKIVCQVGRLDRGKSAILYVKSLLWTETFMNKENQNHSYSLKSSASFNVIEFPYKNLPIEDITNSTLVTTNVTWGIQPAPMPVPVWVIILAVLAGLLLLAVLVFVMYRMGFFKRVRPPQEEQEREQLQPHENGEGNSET
T1 sequence (P05106 27-788): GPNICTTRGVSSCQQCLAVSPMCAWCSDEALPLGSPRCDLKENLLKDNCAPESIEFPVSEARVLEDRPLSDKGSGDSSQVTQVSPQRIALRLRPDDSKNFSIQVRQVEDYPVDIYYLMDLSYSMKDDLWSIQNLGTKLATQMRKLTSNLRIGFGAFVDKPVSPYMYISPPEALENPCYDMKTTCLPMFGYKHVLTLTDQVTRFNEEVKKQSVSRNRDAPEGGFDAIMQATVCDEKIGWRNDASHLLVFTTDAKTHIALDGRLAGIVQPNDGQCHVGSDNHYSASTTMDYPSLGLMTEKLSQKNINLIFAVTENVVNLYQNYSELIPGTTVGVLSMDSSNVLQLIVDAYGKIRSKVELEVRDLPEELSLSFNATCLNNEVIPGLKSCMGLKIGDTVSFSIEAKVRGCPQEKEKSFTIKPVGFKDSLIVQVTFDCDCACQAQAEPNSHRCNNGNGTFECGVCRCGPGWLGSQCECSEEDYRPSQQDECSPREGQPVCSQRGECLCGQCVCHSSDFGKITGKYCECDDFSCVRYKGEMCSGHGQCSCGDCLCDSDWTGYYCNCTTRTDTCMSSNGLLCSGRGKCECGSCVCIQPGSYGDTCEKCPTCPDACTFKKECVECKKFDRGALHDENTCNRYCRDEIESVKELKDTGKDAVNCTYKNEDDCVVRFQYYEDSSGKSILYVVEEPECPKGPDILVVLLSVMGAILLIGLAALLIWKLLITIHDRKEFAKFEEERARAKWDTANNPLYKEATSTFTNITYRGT

Row | Compound | endothelial cell invasion and migration into Matrigel plug (angiogenesis) [1] | number of tubes formed [2] | cell attachment to AG73 peptide [3] | cell attachment to C16 peptide [3] | cell attachment to fibronectin [3] | cell attachment to fibronectin [4] | cell attachment to C16 and AG73 peptides [4] | cell attachment to fibronectin [5] | C16 peptide binding to αVβ3 integrin [6] | fibronectin binding to αVβ3 integrin [6] | ECGS-induced FAK phosphorylation at Y397 [7, 9] | ECGS-induced FAK phosphorylation at Y397 [7, 10] | ECGS-induced FAK phosphorylation at Y397 [7, 11] | cell attachment to antibodies against integrin α subunits [8]
1 | Cl[TeH]1(Cl)(Cl)OCCO1 [AS101, ammonium trichloro(dioxyethylene-O,O′)tellurate] | inhibit endothelial cell invasion and migration | reduced the number of tubes formed | slightly decrease | slightly decrease | inhibited cell attachment to fibronectin | inhibited cell attachment to fibronectin | similar | inhibited cell attachment to fibronectin | block | block | inhibition of ECGS-induced FAK phosphorylation at Y397 | inhibition of ECGS-induced FAK phosphorylation at Y397 | inhibition of ECGS-induced FAK phosphorylation at Y397 | little if any inhibition
2 | O=C1O[Te]23OC(=O)C(O2)C2O[Te]4(OC(=O)C(O4)C1O3)OC2=O [SAS, [TeO4(COCH)2]2] | inhibit endothelial cell invasion and migration | reduced the number of tubes formed | slightly decrease | slightly decrease | inhibited cell attachment to fibronectin | inhibited cell attachment to fibronectin | similar | inhibited cell attachment to fibronectin | block | block | inhibition of ECGS-induced FAK phosphorylation at Y397 | inhibition of ECGS-induced FAK phosphorylation at Y397 | inhibition of ECGS-induced FAK phosphorylation at Y397 | little if any inhibition
